Experiment [1] concerns the target ERK2 Y191A (Rattus norvegicus (Rat), UniProt P63086, Y191A). The experiment in a line: Fluorescence quenching (FQ) binding affinity. As to conditions: read-out: KD Y191A (Site 2).
The target in experiment [2] is ERK2 L235A (Rattus norvegicus (Rat), UniProt P63086, L235A). Kind of experiment: Fluorescence quenching (FQ) binding affinity. As to conditions: read-out: KD L235A (Site 5).
Experiment [3] deals with ERK2 L265A (Rattus norvegicus (Rat), UniProt P63086, L265A). Kind of experiment: Fluorescence quenching (FQ) binding affinity. The following applies: read-out: KD L265A (Site 4).
Experiment [4] has as its system HeLa cervical carcinoma cells. The experiment in a line: Cell proliferation, fluorescent Cell Titer Blue Assay (Example 1). The format is cell-based. The following applies: Homo sapiens, 48 hours. The gist of the method:
(§1)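 Cells seeded at 25,000/well, cultured overnight, then treated with compound across a concentration range for 48 hours. Proliferation read by fluorescent Cell Titer Blue; repeated in 3 separate experiments.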

For experiment [5], the system named is A375 melanoma cells. The experiment is described as above. The format is cell-based. As to conditions: Homo sapiens, A-375; 48 hours. The gist of the method: as §1
Experiment [6] deals with Jurkat T-cell leukemia cells. Described as above. In kind it is cell-based. As to conditions: Homo sapiens, 48 hours. The gist of the method: as §1
Experiment [7] deals with RPMI7951 melanoma cells. The description is as above. In kind it is cell-based. As to conditions: Homo sapiens, RPMI-7951; 48 hours. The essentials:
as §1

For experiment [8], the target named is ERK2 R275A (Rattus norvegicus (Rat), UniProt P63086, R275A). Kind of experiment: Fluorescence quenching (FQ) binding affinity. As to conditions: read-out: KD R275A (Site 3).
In experiment [9] the test system is ERK1/2-mediated phosphorylation of Elk-1. Kind of experiment: Immunoblot of ERK1/2-mediated Elk-1 phosphorylation in EGF treated HeLa cells. In kind it is cell-based. The following applies: 100 μM, EGF 25 ng/mL 10 min. In general terms: A western blot detects proteins with antibodies after separation by electrophoresis.
Experimental: (b) HeLa cells were pre-incubated for 30 min with indicated compounds (100 μM) followed by treatment with EGF (25 ng/mL) for 10 min. to activate ERK1/2 signaling. Lysates were immunoblotted for phosphorylated Elk1 (pElk1 S383) or active ERK1/2 (pERK1/2). […] The MEK1/2 inhibitor U0126 (10 μM) was used to block all ERK1/2 signaling and α-tubulin expression was used as a protein loading control.
Proteins were separated by SDS-PAGE, analyzed by immunoblotting, and detected using enhanced chemiluminescence (ECL, GE Healthcare, United Kingdom).

This is an account of results in patent publication US9115122B2, “Non-ATP dependent inhibitors of extracellular signal-regulated kinase (ERK)” (UNIVERSITY OF MARYLAND, BALTIMORE, priority 2012, dated 2015).

Chain of ERK2 R275A (P63086 whole entry R275A): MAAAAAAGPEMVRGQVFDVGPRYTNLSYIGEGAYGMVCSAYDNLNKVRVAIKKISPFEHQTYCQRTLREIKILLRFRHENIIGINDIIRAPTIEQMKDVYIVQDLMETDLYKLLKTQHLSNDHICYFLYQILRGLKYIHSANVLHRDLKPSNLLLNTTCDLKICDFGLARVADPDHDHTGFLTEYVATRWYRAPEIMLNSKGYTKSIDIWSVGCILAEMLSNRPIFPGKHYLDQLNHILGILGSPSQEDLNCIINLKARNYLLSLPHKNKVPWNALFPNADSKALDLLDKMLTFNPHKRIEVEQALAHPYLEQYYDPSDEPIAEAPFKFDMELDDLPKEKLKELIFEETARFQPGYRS
Chain of ERK2 L235A (P63086 whole entry L235A): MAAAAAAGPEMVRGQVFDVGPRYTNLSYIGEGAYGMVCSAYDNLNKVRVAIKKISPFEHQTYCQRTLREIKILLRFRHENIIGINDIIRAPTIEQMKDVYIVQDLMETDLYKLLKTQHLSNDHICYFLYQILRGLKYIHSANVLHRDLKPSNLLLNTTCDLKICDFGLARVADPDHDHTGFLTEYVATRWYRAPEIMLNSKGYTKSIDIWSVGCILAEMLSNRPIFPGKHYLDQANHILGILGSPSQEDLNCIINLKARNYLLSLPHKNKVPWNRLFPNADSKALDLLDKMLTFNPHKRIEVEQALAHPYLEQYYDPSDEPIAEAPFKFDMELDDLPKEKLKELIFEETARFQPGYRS
Chain of ERK2 L265A (P63086 whole entry L265A): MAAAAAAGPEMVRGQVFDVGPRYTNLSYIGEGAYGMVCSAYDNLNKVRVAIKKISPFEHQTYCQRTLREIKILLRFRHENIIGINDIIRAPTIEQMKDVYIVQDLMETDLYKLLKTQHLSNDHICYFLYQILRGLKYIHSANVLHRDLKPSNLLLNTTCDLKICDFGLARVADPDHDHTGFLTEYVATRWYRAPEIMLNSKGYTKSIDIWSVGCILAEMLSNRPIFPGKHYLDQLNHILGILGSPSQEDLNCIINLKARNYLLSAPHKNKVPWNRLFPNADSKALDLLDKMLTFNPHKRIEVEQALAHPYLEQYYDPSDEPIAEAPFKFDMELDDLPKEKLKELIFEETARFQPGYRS
Chain of ERK2 Y191A (P63086 whole entry Y191A): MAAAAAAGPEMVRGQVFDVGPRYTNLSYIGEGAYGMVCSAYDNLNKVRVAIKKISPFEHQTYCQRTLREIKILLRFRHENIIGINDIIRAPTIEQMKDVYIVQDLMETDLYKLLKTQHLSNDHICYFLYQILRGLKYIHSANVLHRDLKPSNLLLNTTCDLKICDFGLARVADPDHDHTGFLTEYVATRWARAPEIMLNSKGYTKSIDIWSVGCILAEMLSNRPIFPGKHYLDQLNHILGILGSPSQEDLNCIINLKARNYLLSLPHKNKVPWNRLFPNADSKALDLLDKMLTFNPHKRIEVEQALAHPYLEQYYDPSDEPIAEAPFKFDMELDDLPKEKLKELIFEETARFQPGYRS

In general, Kd refers to the free concentration of one partner at which half of the binding sites on the other are occupied at equilibrium, for simple one-to-one binding. What is called GI50 is the concentration that inhibits growth by half. Take `O=S1(=O)C=CC(OS(=O)(=O)c2ccccc2)C1` (stereo not drawn) [SF-3-026]: the Kd turned out to be 130 nM in [1], 90 ± 20 nM in [2], 280 nM in [3] and 240 nM in [8]. Moreover, the GI50 in [4] was 32 µM; in [5], 7.8 µM; in [6] it was over 50 µM; in [7], 5.1 µM. In addition, the “inhibition of ERK1/2-mediated Elk-1 phosphorylation” value in experiment [9] is “inhibit ERK1/2-mediated phosphorylation”.
